Measurements reported in article PMC10584170, “Machine learning-based phenotypic imaging to characterise the targetable biology of Plasmodium falciparum male gametocytes for the development of transmission-blocking antimalarials” (PLOS Pathogens, 2023).
pIC50: −log10 of the molar value. Like-named read-outs stand apart in the source and are kept apart here.

Assays:
[1] = tested on: P. falciparum male gametocytes; experiment: P. falciparum Dual Gamete Formation Assay (PfDGFA), male readout (exflagellation); assay type: cell-based, Plasmodium falciparum NF54; settings: for pIC50: this study, read-out: Pf DGFA IC50 MALE
Procedure, shortened: (§1)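 Two sex-specific readouts come from one well: male exflagellation centres recorded by brightfield video right after activation, and female gametes scored by Cy3-anti-Pfs25 fluorescence after 24 h at 28°C.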

[2] = tested on: P. falciparum female gametocytes; experiment: P. falciparum Dual Gamete Formation Assay (PfDGFA), female readout (Pfs25-positive female gametes); assay type: cell-based, Plasmodium falciparum NF54; settings: for pIC50: this study, read-out: Pf DGFA IC50 FEM
Procedure, shortened: as §1

[3] = tested on: P. berghei ookinete development; experiment: P. berghei Ookinete Development Assay (PbODA); assay type: cell-based, Plasmodium berghei; settings: Mean TOX HepG2 over Pb ODA value; GREEN = >10-fold; RED = <10-fold
Text: (§2) Fig 1 The activity of TCAMS compound identified in the Pf DGFA screen. (A) 85 molecules were confirmed active in the Pf DGFA. 58 were previously identified in one or more transmission-blocking screens. […] No molecule was identified with >4.7-fold greater activity against female gametocytes. Abbreviations (IC50 = concentration giving 50% inhibition, PbODA = P. berghei Ookinete Development Assay, PfDGFA = P. falciparum Dual Gamete Formation Assay, PfFGAA = P. falciparum Female Gametocyte Activation Assay, PfGCT = P. falciparum Gametocyte Viability ATP Assay).

[4] = tested on: HepG2 cells; settings: cited from earlier work
[5] = tested on: HepG2 cells; experiment: HepG2 cytotoxicity counter-screen; settings: for Mean TOX: mean of the HepG2 TOX50 values; for DGFA Tox50 HepG2: HepG2 value reported with the DGFA screen
[6] = tested on: P. falciparum female gametocytes; experiment: P. falciparum Female Gametocyte Activation Assay (PfFGAA); assay type: cell-based, Plasmodium falciparum; settings: Mean TOX HepG2 over FGAA IC50; GREEN = >10-fold; RED = <10-fold
Text: as §2

[7] = tested on: P. falciparum female gametocytes; parameters: method as in Miguel-Blanco et al 2017; settings: ref Miguel-Blanco et al 2017; read-out: Pf female gametogenesis FGAA IC50; cited from earlier work

Row | SMILES | pIC50 [1] | pIC50 [2] | Cytotox ratio Pf Male [1] | Cytotox ratio Pf Female [2] | Cytotox ratio Pb Ookinete [3] | ODA TOX50 HepG2 [4] [µM] | Mean TOX [5] [µM] | Cytotox ratio Pf FGAA [6] | pIC50 [7] | FGAA TOX50 HepG2 [4] [µM] | DGFA Tox50 HepG2 [5] [µM]
1 | CCC1=C[C@@H]2CN(C1)Cc1c([nH]c3ccccc13)[C@@](C(=O)OC)(c1cc3c(cc1OC)N(C)[C@H]1[C@@](O)(C(=O)OC)[C@H](O)[C@]4(CC)C=CCN5CC[C@]31[C@@H]54)C2.O=S(=O)(O)O [TC21] | 8.00 |  | 4844.5 | 4.8 | 80190.9 | 41.2098 | 48.44 |  |  |  | 
2 | COc1ccc(Nc2ncc(C#N)c(Nc3ccccc3C(N)=O)n2)cc1N1CCN(C)CC1.Cl [TC22] | 7.00 |  | 89.5 | 0.9 | 308001.0 | 8.318 | 8.95 |  |  |  | 
3 | COc1ccc(-c2cnc(N)c(-c3ccc(C(N)=O)cc3)c2)cc1OC [TC26] | 6.55 |  | 205.6 | 5.8 | 82067.7 | 100 | 57.57 |  |  |  | 
4 | CNC(=O)c1ccccc1Nc1nc(Nc2ccc(N3CCOCC3)cc2)ncc1Cl.Cl [TC28] | 6.74 |  | 12.4 | 0.223 | 3489.3 | 3.631 | 2.23 |  |  |  | 
5 | Cc1cccc(Nc2nc(N[C@@H]3CCCNC3)nc3cc[nH]c(=O)c23)c1.O=C(O)C(F)(F)F [TC29] | 6.68 | 5.11 | 19.5 | 0.532 | 3922.6 | 4.57 | 4.09 | 2.2 | 5.73 | 3.25 | 
6 | O=C(O)C(F)(F)F.O=c1[nH]ccc2nc(N[C@@H]3CCCNC3)nc(Nc3ccc(S(=O)(=O)N4CCOCC4)cc3)c12 [TC42] | 7.22 | 5.09 | 563.3 | 4.1 | 23182.4 | 45.71 | 33.80 |  |  |  | 
7 | Cc1ccc(-n2c(Sc3ncnc4sccc34)nnc2N2CCCC2)cc1 [TC46] | 6.42 | 6.60 | 207.3 | 315.2 | 177427.8 | 74.1 | 78.79 | 160.8 | 6.31 | 89.13 | 
8 | CN1CCN(c2ccc(Nc3ncc(C#N)c(Nc4ccccc4C(N)=O)n3)cc2)CC1.Cl [TC49] | 7.52 | 5.04 | 102.3 | 0.335 | 95106.6 | 2.427 | 3.07 |  |  |  | 
9 | COc1ccc(Nc2ncc(OC)c(Nc3ccccc3C(N)=O)n2)cc1N1CCN(C)CC1.O=CO [TC59] | 6.74 | 5.10 | 52.0 | 1.2 | 19018.5 | 13.49 | 9.37 |  |  |  | 
10 | COc1ccc2nc(-c3cc(-c4ccc(NC(C)=O)cc4)cnc3N)[nH]c2c1 [TC69] | 6.27 |  | 14.0 | 0.755 | 10513.6 | 12.02 | 7.55 |  |  |  | 
11 | C#C[C@H]1O[C@@H](n2cnc3c(Nc4cc(Br)cc(C(F)(F)F)c4)ncnc32)[C@H](O)[C@@H]1O [TC70] | 6.52 |  | 262.6 | 7.9 | 88432.3 | 57.54 | 78.77 |  |  |  | 100
12 | COc1ccc(Nc2ncc(Cl)c(Nc3cccnc3C(N)=O)n2)cc1N1CCN(C)CC1.Cl [TC75] | 6.40 |  | 17.8 | 0.7 | 11414.1 | 11.22 | 7.10 |  |  |  | 

Further lines, with some results ahead:

Row | pIC50 [1] | pIC50 [2] | SMILES | Cytotox ratio Pf Male [1] | Cytotox ratio Pf Female [2] | Cytotox ratio Pb Ookinete [3] | ODA TOX50 HepG2 [4] [µM] | Mean TOX [5] [µM] | Cytotox ratio Pf FGAA [6] | pIC50 [7] | FGAA TOX50 HepG2 [4] [µM] | DGFA Tox50 HepG2 [5] [µM]
13 | 6.34 | 5.26 | CN1CCN(c2ccc(Nc3ncc(Cl)c(Nc4cccnc4C(N)=O)n3)cc2)CC1.Cl [TC24] | 11.9 | 1.0 | 13093.5 | 4.624 | 5.46 |  |  |  | 
14 | 6.37 |  | COc1ccc2nc(-c3cc(-c4ccc(NC(=O)C(C)C)cc4)cnc3N)[nH]c2c1 [TC32] | 19.8 | 0.85 | 12253.3 | 8.61 | 8.50 |  |  |  | 
15 | 6.33 |  | Cl.NC(=O)c1ccccc1Nc1nc(Nc2cccc(N3CCN(CCO)CC3)c2)ncc1Cl [TC33] | 58.3 | 2.7 | 311828.0 | 41.687 | 27.38 |  |  |  | 
16 | 6.14 | 6.25 | Cn1c(Sc2ncnc3sccc23)nc2ccccc21 [TC34] | 138.9 | 178.6 | 156933.9 | 100 | 100.00 | 80.0 | 5.90 | 100 | 100
17 | 7.40 | 5.13 | Cc1cc(Nc2ncc(C#N)c(Nc3ccccc3C(N)=O)n2)ccc1N1CCN(C)CC1.Cl [TC37] | 45.1 | 0.244 | 66058.5 | 3.981 | 1.80 | 1.1 | 5.78 | 0.4 | 
18 | 6.51 | 5.12 | Cc1ccc(S(=O)(=O)N(CCCNCc2cccc(O)c2)c2ccccc2)cc1 [TC44] | 119.3 | 4.8 | 26220.7 | 34.6737 | 36.97 | 32.4 | 5.94 | 44.67 | 
19 | 5.72 | 5.84 | Cc1cc(C(=O)OCC(=O)Nc2c(C)n(C)n(-c3ccccc3)c2=O)c(C)n1-c1ccc(F)cc1 [TC63] | 31.4 | 41.8 | 166949.3 | 19.5 | 59.75 |  |  |  | 100
20 | 8.00 |  | CCS(=O)(=O)Nc1ccc2c(c1)/C(=C(/Nc1ccc(CN3CCCCC3)cc1)c1ccccc1)C(=O)N2 [TC81] | 877.0 | 0.9 | 6770.0 | 16.98 | 8.77 |  |  |  | 
